Earlier results in patent publication US20200163962A1, “PHARMACEUTICAL COMPOSITION OF NILOTINIB” (SUN PHARMACEUTICAL INDUSTRIES LTD., priority 2016, published 2020).

Tests used:
[1] = particularly the hydrochloride
[2] = ingested with or after meals, particularly high fat meals

Cc1cn(-c2cc(NC(=O)c3ccc(C)c(Nc4nccc(-c5cccnc5)n4)c3)cc(C(F)(F)F)c2)cn1 [Nilotinib, 4-methyl-N-[3-(4-methyl-1H-imidazol-1-yl)-5-(trifluoromethyl)phenyl]-3-[[4-(3-pyridinyl)-2-pyrimidinyl]amino]-benzamide]
increase of systemic exposure (AUC) compared to the fasted state (dose given 30 minutes after a high fat meal): 82% | increase of Cmax with food [2]: 112% | increase of area under the plasma profile curve with food [2]: 82% | water solubility [1]: poorly water soluble
